{
  "source": "patent US12631620B2",
  "about": "“Methods of generating organoids for high throughput screening of drugs” (Yissum Research Development Company of the Hebrew …, priority 2019, dated 2026)",
  "key": {"[1]": {"tested_on": "E6/E7^LOW human hepatocytes", "experiment": "Apoptotic index, DeadEnd fluorometric TUNEL System", "type": "cell-based", "conditions": "24 hours exposure"}, "[2]": {"tested_on": "E6/E7^LOW human hepatocytes", "experiment": "E6/E7LOW human hepatocyte viability assessment (LIVE/DEAD Cytotoxicity kit)", "type": "cell-based", "conditions": "24 hours", "description": "E6/E7^LOW human hepatocyte were cultured with different concentrations of compounds dissolved in culture medium for 24 hours. Cell viability was subsequently determined using LIVE/DEAD Cytotoxicity kit (Molecular Probes, USA) according to manufacturer directions. Briefly, cultures were incubated for 30 minutes with 2 μM calcein AM and 3 μM ethidium homodimer-1. Live cells were positive for green fluorescence due to hydrolysis of the acetoxymethyl ester group by intracellular esterases. Dead cells were positive for red fluorescence due to ethidium homodimer-1 binding intracellular DNA, possible in […]. Cellular viability was expressed as live over dead ratio and normalized based on negative (DMSO/DDW/EtOH) and positive (0.1% Saponin) controls. Fluorescence micrographs were analyzed for total fluorescence using ImageJ for 12 repeats for each sample. TC50 and TC20 concentrations were calculated using MATLAB® Curve Fitting Tool. Results were fitted to a sigmoidal curve (Prentice, 1976; Wenner et al., 2011). Error bars indicate ±SE."}, "[3]": {"tested_on": "E6/E7^LOW human hepatocytes", "experiment": "Bile secretion, CDFDA staining", "type": "cell-based", "conditions": "p<0.05, n=4", "description": "(§1) Quantification of Apoptotic index was performed using DeadEnd™ fluorometric TUNEL System (Promega) according to manufacturer directions. Briefly, cells were treated with TC20 concentrations of compounds dissolved in culture medium for 24 hours, and subsequently fixed in 4% Paraformaldehyde (PFA). Cells were then permeabilized and exposed to fluorescein-12-dUTP and terminal deoxynucleotidyl transferase (TdT). The reaction was subsequently stopped and the cells counterstained with 1 μg/mL Hoechst 33258. Apoptotic cells were positive for green fluorescence in the nucleus. Percentage apoptosis was defined as the number of TUNEL positive nuclei normalized to Hoechst 33258 positive nuclei. Quantification of Steatosis was performed using HCS LipidTOX™ Phospholipidosis and Steatosis Detection Kit (ThermoFisher). […] Quantification of Bile Secretion was performed using 5(6)-carboxy-2′,7′-dichlorofluorescein diacetate (CDFDA) staining. […] All quantifications were made in comparison to cells treated with melatonin as negative control.\nQuantification of Apoptotic index was performed using DeadEnd™ fluorometric TUNEL System (Promega) according to manufacturer directions. […] Apoptotic cells were positive for green fluorescence in the nucleus. […] Quantification of Steatosis was performed using HCS LipidTOX™ Phospholipidosis and Steatosis Detection Kit (ThermoFisher). […]"}, "[4]": {"tested_on": "E6/E7^LOW human hepatocytes", "experiment": "Steatosis and phospholipidosis, HCS LipidTOX detection kit, hepatocyte cultures", "type": "cell-based", "description": "Quantification of Apoptotic index was performed using DeadEnd™ fluorometric TUNEL System (Promega) according to manufacturer directions. Briefly, cells were treated with TC20 concentrations of compounds dissolved in culture medium for 24 hours, and subsequently fixed in 4% Paraformaldehyde (PFA). Cells were then permeabilized and exposed to fluorescein-12-dUTP and terminal deoxynucleotidyl transferase (TdT). The reaction was subsequently stopped and the cells counterstained with 1 μg/mL Hoechst 33258. Apoptotic cells were positive for green fluorescence in the nucleus. Percentage apoptosis was defined as the number of TUNEL positive nuclei normalized to Hoechst 33258 positive nuclei. Quantification of Steatosis was performed using HCS LipidTOX™ Phospholipidosis and Steatosis Detection Kit (ThermoFisher). Briefly, differentiated cells were incubated with different concentrations of compounds dissolved in culture medium and 1× Phospholipidosis Detection Reagent for 48 hours, subsequently fixed in 4% PFA. Cells were then stained with 1× LipidTOX™ for 20 minutes and counterstained with 1 μg/mL Hoechst 33258. Staining intensity was normalized to number of Hoechst 33258 positive nuclei. Quantification of Bile Secretion was performed using 5(6)-carboxy-2′,7′-dichlorofluorescein diacetate (CDFDA) staining. Briefly, differentiated cells were incubated with different concentrations of compounds dissolved in culture medium for 24 hours. Cells were then treated with 10 μg/mL CDFDA and 1 μg/mL Hoechst 33342 for 30 minutes. Incubation medium was removed and cultures washed with ice-cold PBS containing calcium and magnesium. Staining intensity was normalized to number of Hoechst 33342 positive nuclei. Analysis excluded Intracellular CDFDA staining based on intensity and phase images. All quantifications were made in comparison to cells treated with melatonin as negative control.\nas §1, with “Cell” for “Cells”, “Percentage apoptosis was defined as the number of TUNEL positive nuclei normalized to Hoechst 33258 positive nuclei.” left out"}, "HepG2/C3A organoids": {"tested_on": "HepG2/C3A organoids", "experiment": "Neutral lipid and phospholipid staining of HepG2/C3A organoids on chip", "type": "cell-based, human", "conditions": "p<0.001, n=9"}, "E6/E7^LOW hepatocytes": {"tested_on": "E6/E7^LOW hepatocytes", "description": "According to some embodiments of the invention there is a sensor-integrated liver on chip array in which oxygen is monitored using two-frequency phase modulation of tissue-embedded phosphorescent microprobes, while glucose, lactate and temperature are measured in real time using microfluidic electrochemical sensors. Such a microphysiological platform permits the calculation of dynamic changes in metabolic fluxes around central carbon metabolism, producing a unique metabolic fingerprint of the liver's response to stimuli."}, "[5]": {"conditions": "patients on therapy; cited from earlier work"}},
  "note": "Where “and” joins values, the source holds several entries; their conditions need not be identical. Identical values can stand only once.",
  "data": [
    {"compound": "Cc1cn([C@H]2C=C[C@@H](CO)O2)c(=O)[nH]c1=O", "note": "[Stavudine]", "values": [
      {"measurement": "apoptosis", "setting": "[1]", "result": "no evidence of apoptosis"},
      {"measurement": "TC50", "setting": "[2]", "result": "800 µM and 800 ± 60 µM"},
      {"measurement": "bile secretion", "setting": "[3]", "result": "mild inhibition"},
      {"measurement": "phospholipidosis", "setting": "[4]", "result": "not"},
      {"measurement": "neutral lipids", "setting": "[4]; p<0.001, n=4", "result": "strong and significant increase"},
      {"measurement": "increase in the amount of intracellular lipids", "setting": "HepG2/C3A organoids", "result": 3, "unit": "fold"},
      {"measurement": "ATP production", "setting": "E6/E7^LOW hepatocytes", "result": "relatively unchanged"},
      {"measurement": "direct mitochondrial damage", "setting": "E6/E7^LOW hepatocytes", "result": "no indication of direct mitochondrial damage"},
      {"measurement": "metabolic fluxes (lipogenesis, glycolysis)", "setting": "E6/E7^LOW hepatocytes", "result": "transient increase in lipogenesis followed by global suppression of both glycolysis and lipogenesis"},
      {"measurement": "increase in lipogenesis", "setting": "E6/E7^LOW hepatocytes; flux balance analysis, below threshold of cellular damage, Valproate sustained, Stavudine transient", "result": 5, "unit": "%"},
      {"measurement": "time to onset of slow progressive damage post-exposure", "setting": "E6/E7^LOW hepatocytes; human", "result": "15 to 20", "unit": "h"},
      {"measurement": "patients with elevated liver enzymes", "setting": "[5]", "result": 30, "unit": "%"}
    ]}
  ]
}
